Experimental data published in ChEMBL document CHEMBL4190307, “Design, synthesis and biological evaluation of novel coumarin-N-benzyl pyridinium hybrids as multi-target agents for the treatment of Alzheimer's disease” (Eur J Med Chem, 2017).
pIC50: −log10 of the molar value. Active and inactive are the calls of the source. The calls are words filed in the database; no cut-off is given here.

What was measured:
Acetylcholinesterase [1] = biological target: Acetylcholinesterase (Electrophorus electricus, UniProt O42275); assay: Inhibition of electric eel AChE using acetylthiocholine iodide as substrate preincubated for 6 mins followed by substrate addition measured up to 180 secs by Ellman's method
Acetylcholinesterase (Electrophorus electricus, UniProt O42275), sequence (O42275 whole entry): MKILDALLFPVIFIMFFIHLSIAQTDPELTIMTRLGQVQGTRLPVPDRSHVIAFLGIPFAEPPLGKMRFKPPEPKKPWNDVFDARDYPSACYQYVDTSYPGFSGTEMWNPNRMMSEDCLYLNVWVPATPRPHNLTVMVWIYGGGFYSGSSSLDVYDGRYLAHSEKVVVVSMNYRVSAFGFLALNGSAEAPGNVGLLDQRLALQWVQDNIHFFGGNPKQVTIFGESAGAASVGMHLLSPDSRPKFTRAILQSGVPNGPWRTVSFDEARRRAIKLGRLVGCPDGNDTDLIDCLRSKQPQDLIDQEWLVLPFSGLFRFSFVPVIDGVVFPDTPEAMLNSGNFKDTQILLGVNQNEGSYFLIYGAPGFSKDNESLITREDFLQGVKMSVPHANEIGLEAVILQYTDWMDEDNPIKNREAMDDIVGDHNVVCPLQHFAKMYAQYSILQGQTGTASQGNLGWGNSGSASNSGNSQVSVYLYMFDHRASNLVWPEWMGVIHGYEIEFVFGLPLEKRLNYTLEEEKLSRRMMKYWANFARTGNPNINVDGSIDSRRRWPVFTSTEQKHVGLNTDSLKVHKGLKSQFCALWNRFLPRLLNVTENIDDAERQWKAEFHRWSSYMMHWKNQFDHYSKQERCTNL

Cholinesterase [2] = biological target: Cholinesterase (Equus caballus, UniProt P81908); assay: Inhibition of equine serum BuChE using S-butyrylthiocholine iodide as substrate preincubated for 6 mins followed by substrate addition measured up to 180 secs by Ellman's method
Cholinesterase (Equus caballus, UniProt P81908), sequence (P81908 whole entry): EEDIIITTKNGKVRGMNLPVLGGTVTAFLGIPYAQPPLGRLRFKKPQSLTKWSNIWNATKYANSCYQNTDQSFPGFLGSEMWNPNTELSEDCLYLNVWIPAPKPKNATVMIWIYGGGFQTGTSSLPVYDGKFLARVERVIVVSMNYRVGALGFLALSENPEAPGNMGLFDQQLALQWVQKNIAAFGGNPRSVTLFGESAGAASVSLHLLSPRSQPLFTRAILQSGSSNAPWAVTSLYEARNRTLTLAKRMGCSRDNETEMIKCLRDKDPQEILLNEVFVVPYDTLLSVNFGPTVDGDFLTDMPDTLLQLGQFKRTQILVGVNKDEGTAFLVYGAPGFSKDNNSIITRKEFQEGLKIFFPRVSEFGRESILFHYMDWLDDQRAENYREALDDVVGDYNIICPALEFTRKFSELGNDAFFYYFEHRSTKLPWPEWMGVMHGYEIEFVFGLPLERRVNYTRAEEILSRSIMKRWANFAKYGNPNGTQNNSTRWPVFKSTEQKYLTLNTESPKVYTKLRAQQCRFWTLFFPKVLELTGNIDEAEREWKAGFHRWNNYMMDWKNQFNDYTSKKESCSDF

[3] = Selectivity index, ratio of IC50 for equine serum BuChE to IC50 for electric eel AChE
[4] = biological target: T1, Amine oxidase [flavin-containing] A (Homo sapiens, UniProt P21397); assay: Inhibition of recombinant human MAOA at 10 uM using p-tyramine as substrate after 15 mins by resorufin dye-based fluorometric method relative to control; settings: 0.25 h
T1 sequence (P21397 whole entry): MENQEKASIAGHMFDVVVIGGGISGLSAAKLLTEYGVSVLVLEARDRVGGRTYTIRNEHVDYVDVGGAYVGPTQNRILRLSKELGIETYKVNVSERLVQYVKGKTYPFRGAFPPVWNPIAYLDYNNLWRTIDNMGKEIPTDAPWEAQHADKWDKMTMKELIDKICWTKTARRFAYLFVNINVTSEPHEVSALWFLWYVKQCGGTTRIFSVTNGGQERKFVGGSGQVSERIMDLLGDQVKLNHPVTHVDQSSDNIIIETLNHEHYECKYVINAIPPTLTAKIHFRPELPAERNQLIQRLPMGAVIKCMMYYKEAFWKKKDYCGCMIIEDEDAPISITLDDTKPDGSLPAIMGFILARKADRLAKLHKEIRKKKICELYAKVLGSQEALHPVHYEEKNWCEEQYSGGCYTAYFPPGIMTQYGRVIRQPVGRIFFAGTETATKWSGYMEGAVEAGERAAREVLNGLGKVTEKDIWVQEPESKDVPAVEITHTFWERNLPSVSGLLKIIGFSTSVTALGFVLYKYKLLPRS

[5] = biological target: T2, Amine oxidase [flavin-containing] B (Homo sapiens, UniProt P27338)
T2 sequence (P27338 whole entry): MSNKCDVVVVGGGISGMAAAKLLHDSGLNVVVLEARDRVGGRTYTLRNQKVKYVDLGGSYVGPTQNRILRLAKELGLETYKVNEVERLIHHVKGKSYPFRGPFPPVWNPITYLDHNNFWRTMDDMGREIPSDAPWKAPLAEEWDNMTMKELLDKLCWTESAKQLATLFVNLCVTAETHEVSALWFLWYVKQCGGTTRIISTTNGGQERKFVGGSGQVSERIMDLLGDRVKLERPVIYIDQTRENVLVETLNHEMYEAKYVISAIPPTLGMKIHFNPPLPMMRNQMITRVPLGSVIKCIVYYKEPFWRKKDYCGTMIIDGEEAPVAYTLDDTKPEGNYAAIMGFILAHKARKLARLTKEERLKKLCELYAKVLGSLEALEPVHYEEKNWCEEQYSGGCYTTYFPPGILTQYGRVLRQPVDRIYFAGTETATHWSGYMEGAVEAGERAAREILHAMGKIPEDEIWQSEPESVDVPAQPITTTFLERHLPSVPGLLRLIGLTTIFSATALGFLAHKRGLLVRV
Description: Inhibition of recombinant human MAOB using p-tyramine as substrate after 15 mins by Amplex Red dye-based fluorometric method

Homo sapiens [6] = species on record: Homo sapiens; assay: Selectivity index, ratio of IC50 for recombinant human MAOA to IC50 for recombinant human MAOB
[7] = biological target: Amyloid-beta precursor protein (Homo sapiens) (UniProt P05067); assay: Inhibition of self-induced amyloid beta (1 to 42) (unknown origin) aggregation at 20 uM after 46 to 48 hrs by thioflavin T-based fluorescence assay relative to control
Amyloid-beta precursor protein (Homo sapiens), sequence (P05067 whole entry): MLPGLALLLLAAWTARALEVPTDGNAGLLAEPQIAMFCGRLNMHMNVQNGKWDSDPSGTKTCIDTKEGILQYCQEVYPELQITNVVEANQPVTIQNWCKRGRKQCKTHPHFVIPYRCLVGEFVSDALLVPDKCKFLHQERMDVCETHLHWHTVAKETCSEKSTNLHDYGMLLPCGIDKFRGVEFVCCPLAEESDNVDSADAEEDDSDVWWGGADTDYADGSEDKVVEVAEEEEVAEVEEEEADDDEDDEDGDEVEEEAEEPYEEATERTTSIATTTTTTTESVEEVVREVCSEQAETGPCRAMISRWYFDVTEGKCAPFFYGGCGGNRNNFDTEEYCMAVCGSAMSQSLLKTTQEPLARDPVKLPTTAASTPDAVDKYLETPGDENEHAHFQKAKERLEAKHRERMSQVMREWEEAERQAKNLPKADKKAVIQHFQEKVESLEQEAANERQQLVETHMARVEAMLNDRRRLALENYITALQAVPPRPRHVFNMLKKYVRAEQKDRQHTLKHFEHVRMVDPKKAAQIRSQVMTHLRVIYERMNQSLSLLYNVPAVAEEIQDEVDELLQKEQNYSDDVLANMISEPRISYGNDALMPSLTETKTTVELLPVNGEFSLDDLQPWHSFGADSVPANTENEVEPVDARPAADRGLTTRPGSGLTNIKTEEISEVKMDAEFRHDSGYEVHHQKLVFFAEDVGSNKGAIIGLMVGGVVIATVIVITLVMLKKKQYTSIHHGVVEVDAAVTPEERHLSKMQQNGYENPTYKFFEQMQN

PC-12 = assay: Cytotoxicity against rat PC12 cells assessed as reduction in cell viability at 100 uM after 24 hrs by MTT assay relative to control; type: cell-based; settings: pc-12, 24 h
Acetylcholinesterase [8] = biological target: Acetylcholinesterase (Homo sapiens, UniProt P22303); assay: Inhibition of human AChE using acetylthiocholine iodide as substrate preincubated for 6 mins followed by substrate addition measured up to 180 secs by Ellman's method
Acetylcholinesterase (Homo sapiens, UniProt P22303), sequence (P22303 whole entry): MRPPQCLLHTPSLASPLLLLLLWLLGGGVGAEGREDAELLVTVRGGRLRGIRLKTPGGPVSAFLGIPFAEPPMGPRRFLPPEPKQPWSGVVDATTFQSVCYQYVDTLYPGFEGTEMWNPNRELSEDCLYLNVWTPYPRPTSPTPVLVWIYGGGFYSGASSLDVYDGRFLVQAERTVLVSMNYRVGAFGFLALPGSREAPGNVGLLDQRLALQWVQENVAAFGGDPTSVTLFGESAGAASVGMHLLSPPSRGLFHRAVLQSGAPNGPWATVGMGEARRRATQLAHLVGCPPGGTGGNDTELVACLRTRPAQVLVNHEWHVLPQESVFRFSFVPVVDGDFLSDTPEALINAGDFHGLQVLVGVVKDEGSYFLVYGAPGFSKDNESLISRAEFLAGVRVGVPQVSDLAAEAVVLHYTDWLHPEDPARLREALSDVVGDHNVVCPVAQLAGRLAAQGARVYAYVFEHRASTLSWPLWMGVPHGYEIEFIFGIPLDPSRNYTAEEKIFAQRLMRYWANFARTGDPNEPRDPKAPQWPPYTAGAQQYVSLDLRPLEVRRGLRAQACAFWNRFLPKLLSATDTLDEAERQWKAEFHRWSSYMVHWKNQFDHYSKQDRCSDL

Homo sapiens [9] = species on record: Homo sapiens; assay: Selectivity index, ratio of IC50 for human serum BuChE to IC50 for human AChE
[10] = biological target: Acetylcholinesterase (Electrophorus electricus) (UniProt O42275); assay: Potency index, ratio of IC50 for donepezil to IC50 for test compound for inhibition of electric eel AChE using acetylthiocholine iodide as substrate preincubated for 6 mins followed by substrate addition measured up to 180 secs by Ellman's method
Acetylcholinesterase (Electrophorus electricus), sequence (O42275 24-633 limits assumed): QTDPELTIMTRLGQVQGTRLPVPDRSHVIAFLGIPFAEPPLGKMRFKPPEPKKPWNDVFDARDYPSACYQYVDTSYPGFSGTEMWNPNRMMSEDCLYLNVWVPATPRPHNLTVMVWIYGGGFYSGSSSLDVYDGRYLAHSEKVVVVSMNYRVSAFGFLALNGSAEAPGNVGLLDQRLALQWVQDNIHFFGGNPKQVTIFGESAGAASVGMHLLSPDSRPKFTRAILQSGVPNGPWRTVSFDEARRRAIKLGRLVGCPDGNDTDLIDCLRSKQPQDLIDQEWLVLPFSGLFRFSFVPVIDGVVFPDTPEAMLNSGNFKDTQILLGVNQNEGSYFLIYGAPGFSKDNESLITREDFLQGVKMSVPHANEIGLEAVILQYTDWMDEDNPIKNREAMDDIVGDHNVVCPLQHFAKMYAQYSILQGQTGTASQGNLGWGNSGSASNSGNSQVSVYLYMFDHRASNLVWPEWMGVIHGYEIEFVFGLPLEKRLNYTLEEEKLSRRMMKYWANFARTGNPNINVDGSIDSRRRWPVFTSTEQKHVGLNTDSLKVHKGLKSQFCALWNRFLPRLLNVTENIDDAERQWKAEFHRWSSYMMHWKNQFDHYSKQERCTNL

[11] = biological target: T2, Amine oxidase [flavin-containing] B; assay: Inhibition of recombinant human MAOB at 10 uM using p-tyramine as substrate after 15 mins by resorufin dye-based fluorometric method relative to control; settings: 0.25 h
[12] = biological target: Acetylcholinesterase (Electrophorus electricus) (UniProt O42275); assay: Mixed type inhibition of electric eel AChE up to 80 nM using acetylthiocholine iodide as substrate preincubated for 6 mins followed by substrate addition measured up to 180 secs by Lineweaver-burk plot method
[13] = biological target: T2, Amine oxidase [flavin-containing] B; assay: Reversible inhibition of recombinant human MAO-B assessed as enzyme activity recovery at 10 times IC50 using p-tyramine as substrate preincubated for 30 mins followed by 100 fold compound dilution by Amplex Red dye-based fluorometric method relative to control; parameters: scale not given: the % may be the effect or the level left
[14] = biological target: T2, Amine oxidase [flavin-containing] B; assay: Reversible inhibition of recombinant human MAO-B assessed as enzyme activity recovery at 100 times IC50 using p-tyramine as substrate preincubated for 30 mins followed by 100 fold compound dilution by Amplex Red dye-based fluorometric method relative to control; parameters: scale not given: the % may be the effect or the level left
[15] = biological target: T2, Amine oxidase [flavin-containing] B; assay: Competitive inhibition of recombinant human MAOB up to 3 uM using p-tyramine as substrate after 15 mins by Lineweaver-burk plot method; settings: 0.25 h
Cholinesterase [16] = biological target: Cholinesterase (Homo sapiens, UniProt P06276)
Cholinesterase (Homo sapiens, UniProt P06276), sequence (P06276 whole entry): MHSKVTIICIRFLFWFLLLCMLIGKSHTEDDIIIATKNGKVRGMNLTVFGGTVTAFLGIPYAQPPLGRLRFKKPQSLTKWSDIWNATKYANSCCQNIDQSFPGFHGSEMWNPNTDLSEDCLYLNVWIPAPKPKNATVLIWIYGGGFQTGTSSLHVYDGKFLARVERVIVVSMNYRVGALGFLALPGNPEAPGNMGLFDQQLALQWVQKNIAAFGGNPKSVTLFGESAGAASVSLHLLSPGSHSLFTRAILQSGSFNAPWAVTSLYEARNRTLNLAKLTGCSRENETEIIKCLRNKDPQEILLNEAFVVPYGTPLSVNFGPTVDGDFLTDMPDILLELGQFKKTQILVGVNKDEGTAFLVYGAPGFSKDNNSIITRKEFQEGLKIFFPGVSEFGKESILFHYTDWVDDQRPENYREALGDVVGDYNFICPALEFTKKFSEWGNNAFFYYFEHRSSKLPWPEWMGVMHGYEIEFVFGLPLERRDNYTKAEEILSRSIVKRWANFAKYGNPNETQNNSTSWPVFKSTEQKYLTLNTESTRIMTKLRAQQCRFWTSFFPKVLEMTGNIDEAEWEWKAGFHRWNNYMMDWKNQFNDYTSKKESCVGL
Description: Inhibition of human serum BuChE using S-butyrylthiocholine iodide as substrate preincubated for 6 mins followed by substrate addition measured up to 180 secs by Ellman's method

[17] = biological target: T1, Amine oxidase [flavin-containing] A; assay: Inhibition of recombinant human MAOA using p-tyramine as substrate after 15 mins by Amplex Red dye-based fluorometric method

Row | Structure (SMILES) | pIC50 (Acetylcholinesterase [1]) | pIC50 (Cholinesterase [2]) | Ratio IC50 [3] | inhibition at 10 µM [4] | pIC50 [5] | Ratio IC50 (Homo sapiens [6]) | inhibition [7] | Activity (PC-12) | pIC50 (Acetylcholinesterase [8]) | Ratio IC50 (Homo sapiens [9]) | Ratio IC50 [10] | inhibition at 10 µM [11] | inhibition [12] | Activity [13] | Activity [14] | inhibition (INH) [15] | pIC50 (Cholinesterase [16]) | pIC50 [17]
1 | Cc1cc(=O)oc2cc(OCc3cc[n+](Cc4cccc(Br)c4)cc3)ccc12.[Br-] | 7.20 | 5.36 | 69.8 | 44.6% | 5.66 | > 4.56 | 62.7% | 96.8% | 6.89 | > 77.8 |  |  |  |  |  |  |  | 
2 | Cc1cc(=O)oc2cc(OCc3cc[n+](Cc4cccc(F)c4)cc3)ccc12.[Br-] | 7.59 | 5.56 | 106 | 34.3% | 5.54 | > 3.48 | 50.8% | 99.6% | 7.38 | > 240 | 1.9 |  |  |  |  |  |  | 
3 | Cc1cc(=O)oc2cc(OCc3cc[n+](Cc4ccccc4F)cc3)ccc12.[Br-] | 7.53 | 5.79 | 55.6 | 11.5% | 5.38 | > 2.37 | 53.7% | 100.8% | 7.19 | > 153 |  |  |  |  |  |  |  | 
4 | Cc1cc(=O)oc2cc(OCc3cc[n+](Cc4ccccc4)cc3)ccc12.[Br-] | 6.42 | 5.37 | 11.2 | 5.04% |  | 6.92 | 39.3% | 97.5% | 6.45 | > 28.4 |  | 34.9% |  |  |  |  |  | 
5 | Cc1cc(=O)oc2cc(O)ccc12 [HYMECROMONE] | < 4.00 | < 4.00 |  |  |  |  |  |  |  |  |  |  |  |  |  |  |  | 
6 | Cc1ccc(C[n+]2ccc(COc3ccc4c(C)cc(=O)oc4c3)cc2)cc1.[Br-] | 6.87 | 5.12 | 56.3 | 9.05% | 5.41 | > 2.56 | 58.5% | 99.4% | 6.60 | > 40 |  |  |  |  |  |  |  | 
7 | Cc1ccccc1C[n+]1ccc(COc2ccc3c(C)cc(=O)oc3c2)cc1.[Br-] | 7.60 | 5.79 | 64.7 | 13.9% | 5.50 | > 3.16 | 55.2% | 97.1% | 7.45 | > 282 | 1.9 |  |  |  |  |  |  | 
8 | Cc1cc(=O)oc2cc(OCc3cc[n+](Cc4ccc([N+](=O)[O-])cc4)cc3)ccc12.[Br-] | 5.93 |  | > 8.4 | 18.6% | 5.16 | > 1.45 | 37.7% | 99.5% | 5.97 | > 9.3 |  |  |  |  |  |  |  | 
9 | Cc1cc(=O)oc2cc(OCc3cc[n+](Cc4cccc([N+](=O)[O-])c4)cc3)ccc12.[Br-] | 7.42 | 5.36 |  |  |  |  | 42.8% | 98.4% | 6.64 |  |  |  |  |  |  |  |  | 
10 | Cc1cccc(C[n+]2ccc(COc3ccc4c(C)cc(=O)oc4c3)cc2)c1.[Br-] | 7.43 | 5.63 | 62.2 | 14.8% | 5.80 | > 6.37 | 62.1% | 101.5% | 7.08 | > 120 |  |  | Active | 86% | 47% | Active |  | 
11 | Cc1cc(=O)oc2cc(OCc3cc[n+](Cc4ccccc4Br)cc3)ccc12.[Br-] | 7.44 | 6.32 | 13.2 | 15.1% | 5.40 | > 2.5 | 63.7% | 97.6% | 7.11 | 106 |  |  |  |  |  |  | 5.08 | 
12 | Cc1cc(=O)oc2cc(OCc3cc[n+](Cc4ccc(Br)cc4)cc3)ccc12.[Br-] | 6.92 | 5.31 | 41.1 | 29.9% | 5.41 | > 2.58 | 67.6% | 98.5% | 6.66 | > 41.1 |  |  |  |  |  |  |  | 
13 | Cc1cc(=O)oc2cc(OCc3cc[n+](Cc4ccc(F)cc4)cc3)ccc12.[Br-] | 7.54 | 5.53 | 101 |  | 5.00 | 0.46 | 49.1% | 94.8% | 7.43 | > 271 |  |  |  |  |  |  |  | 5.34
